According to patent US20240239755A1, “SUBSTITUTED PYRIDAZINONES, SALTS OR N-OXIDES THEREOF AND THEIR USE AS HERBICIDALLY ACTIVE SUBSTANCES” (Bayer Aktiengesellschaft, priority 2021, published 2024):

Experiments:
Type in all cases: in vivo
Poa annua (POAAN) [1] = assay: Herbicidal pre-emergence action, 1280 g/ha (Table A7); conditions: visual grading after ca. 3 weeks vs untreated controls
Method in brief: (§1)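 Percent herbicidal effect was scored visually about 3 weeks after treatment relative to untreated pots, where 100% means dead plants and 0% equals control. Compounds (WP or EC) were sprayed onto covering soil of sown sandy loam pots in water containing 0.5% additive at 600 L/ha.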

Poa annua (POAAN) [2] = assay: Herbicidal pre-emergence action, 320 g/ha, POAAN; conditions: visual grading after ca. 3 weeks
Text: (§2) Seeds of mono- and dicotyledonous weed plants were sown in plastic pots (double sowings with one species of mono- and one species of dicotyledonous weed plants per pot), in sandy loam, and covered with soil. The compounds according to the invention, formulated in the form of wettable powders (WP) or as emulsifiable concentrates (EC), were applied to the surface of the covering soil as an aqueous suspension or as an emulsion, with the addition of 0.5% of an additive, at an application rate of 600 litres of water per hectare (converted). Following treatment, the pots were placed in a greenhouse and kept under optimum growth conditions for the test plants. The visual grading of the damage to the test plants was carried out after ca. 3 weeks in comparison to untreated controls (herbicidal effect in percent (%): 100% effect=plants have died, 0% effect=as control plants).
Tables C1 to C6 below, show the effects of selected compounds of the general formula (I) according to Table 1 on various harmful plants using an application rate corresponding to 320 g/ha obtained by the experimental procedure mentioned above.

[3] = tested on: Alopecurus myosuroides (ALOMY); assay: Herbicidal pre-emergence action, 1280 g/ha (Table A2); conditions: visual grading after ca. 3 weeks vs untreated controls
Text: as §2, with “plants). Tables A1 to A11 below, show the effects of selected compounds of the general formula (I) according to Table 1 on various harmful plants and an application rate corresponding to 1280 g/ha obtained by the experimental procedure mentioned above.” for “plants).”

Lolium rigidum (LOLRI) [4] = assay: Herbicidal pre-emergence action, 1280 g/ha (Table A5); conditions: visual grading after ca. 3 weeks vs untreated controls
Method in brief: as §1

Kochia scoparia (KCHSC) [5] = assay: Herbicidal post-emergence action, 1280 g/ha (Table B4); conditions: visual assessment after ca. 3 weeks vs untreated controls
Method in brief: (§3)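 Visual percent damage relative to untreated plants (100% dead, 0% no effect) was rated about 3 weeks after treatment in the greenhouse. WP or EC preparations with 0.5% additive were applied at 600 L water/ha onto single-leaf-stage plants grown 2–3 weeks in sandy loam pots.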

[6] = tested on: Matricaria inodora (MATIN); assay: Herbicidal post-emergence action, 320 g/ha, MATIN; conditions: visual grading after ca. 3 weeks
Method in brief: (§4)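 Visual herbicidal effect (%) relative to untreated plants, scored about 3 weeks after treatment; 100% means dead plants. Plants in sandy loam were sprayed at the single-leaf stage with formulated compound plus 0.5% additive in 600 litres water per hectare.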

[7] = tested on: Amaranthus retroflexus (AMARE); assay: Herbicidal post-emergence action, 320 g/ha, AMARE; conditions: visual grading after ca. 3 weeks
Method in brief: as §4

Veronica persica (VERPE) [8] = assay: Herbicidal post-emergence action, 320 g/ha, VERPE; conditions: visual grading after ca. 3 weeks
Method in brief: as §4

Lolium rigidum (LOLRI) [9] = assay: Herbicidal post-emergence action, 1280 g/ha (Table B5); conditions: visual assessment after ca. 3 weeks vs untreated controls
Method in brief: as §3

[10] = tested on: Abutilon theophrasti (ABUTH); assay: Herbicidal post-emergence action, 320 g/ha, ABUTH; conditions: visual grading after ca. 3 weeks
Method in brief: as §4

[11] = tested on: Amaranthus retroflexus (AMARE); assay: Herbicidal post-emergence action, 1280 g/ha, AMARE; conditions: visual grading vs untreated controls
Method in brief: (§5)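 Visual rating ~3 weeks after treatment: 0% equals untreated control, 100% means plants died. Treatment was a 1280 g/ha foliar spray (600 L water/ha, 0.5% additive, WP or EC formulation) applied to single-leaf-stage plants grown 2–3 weeks in sandy loam under controlled conditions.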

Stellaria media (STEME) [12] = assay: Herbicidal pre-emergence action, 1280 g/ha (Table A9); conditions: visual grading after ca. 3 weeks vs untreated controls
Method in brief: as §1

Stellaria media (STEME) [13] = assay: Herbicidal post-emergence action, 320 g/ha, STEME; conditions: visual grading after ca. 3 weeks
Method in brief: as §4

[14] = tested on: Abutilon theophrasti (ABUTH); assay: Herbicidal post-emergence action, 1280 g/ha (Table B1); conditions: visual assessment after ca. 3 weeks vs untreated controls
Method in brief: as §3

[15] = tested on: Amaranthus retroflexus (AMARE); assay: Herbicidal pre-emergence action, 1280 g/ha (Table A11); conditions: visual grading after ca. 3 weeks vs untreated controls
Method in brief: as §1

Poa annua (POAAN) [16] = assay: Herbicidal post-emergence action, 1280 g/ha (Table B7); conditions: visual assessment after ca. 3 weeks vs untreated controls
Text: (§6) Seeds of mono- and dicotyledonous weed plants were sown in plastic pots (double sowings with one species of mono- and one species of dicotyledonous weed plants per pot), in sandy loam, covered with soil and grown under controlled growth conditions. 2 to 3 weeks after sowing, the test plants were sprayed in the single-leaf stage. The compounds according to the invention, formulated in the form of wettable powders (WP) or as emulsifiable concentrates (EC), were sprayed onto the green plant parts as an aqueous suspension or as an emulsion, with the addition of 0.5% of an additive, at an application rate of 600 litres of water per hectare (converted). The test plants were placed in the greenhouse for ca. 3 weeks under optimum growth conditions, and then the effect of the preparations was assessed visually in comparison with untreated controls (herbicidal effect in percent (%): 100% effect=plants have died, 0% effect=as control plants). Tables B1 to B11 below, show the effects of selected compounds of the general formula (I) according to Table 1 on various harmful plants using an application rate corresponding to 1280 g/ha obtained by the experimental procedure mentioned above.

[17] = tested on: Echinochloa crus-galli (ECHCG); assay: Herbicidal post-emergence action, 1280 g/ha (Table B3); conditions: visual assessment after ca. 3 weeks vs untreated controls
Text: as §6

Veronica persica (VERPE) [18] = assay: Herbicidal post-emergence action, 1280 g/ha, VERPE; conditions: visual grading vs untreated controls
Method in brief: as §5

Stellaria media (STEME) [19] = assay: Herbicidal post-emergence action, 1280 g/ha (Table B9); conditions: visual assessment after ca. 3 weeks vs untreated controls
Method in brief: as §3

[20] = tested on: Matricaria inodora (MATIN); assay: Herbicidal post-emergence action, 1280 g/ha (Table B6); conditions: visual assessment after ca. 3 weeks vs untreated controls
Method in brief: as §3

[21] = tested on: Matricaria inodora (MATIN); assay: Herbicidal pre-emergence action, 1280 g/ha (Table A6); conditions: visual grading after ca. 3 weeks vs untreated controls
Method in brief: as §1

Kochia scoparia (KCHSC) [22] = assay: Herbicidal post-emergence action, 320 g/ha, KCHSC; conditions: visual grading after ca. 3 weeks
Method in brief: as §4

Lolium rigidum (LOLRI) [23] = assay: Herbicidal post-emergence action, 320 g/ha, LOLRI; conditions: visual grading after ca. 3 weeks
Method in brief: as §4

[24] = tested on: Echinochloa crus-galli (ECHCG); assay: Herbicidal post-emergence action, 320 g/ha, ECHCG; conditions: visual grading after ca. 3 weeks
Text: as §6, with “plants).” for “plants). Tables B1 to B11 below, show the effects of selected compounds of the general formula (I) according to Table 1 on various harmful plants using an application rate corresponding to 1280 g/ha obtained by the experimental procedure mentioned above.”
Tables D1 to D8 below, show the effects of selected compounds of the general formula (I) according to Table 1 on various harmful plants using an application rate corresponding to 320 g/ha obtained by the experimental procedure mentioned above.

Lolium rigidum (LOLRI) [25] = assay: Herbicidal pre-emergence action, 320 g/ha (Table C2); conditions: visual grading after ca. 3 weeks vs untreated controls
Method in brief: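 Herbicidal effect was graded by eye roughly 3 weeks after treatment, from 0% (as control) to 100% (dead plants). Weed seeds sown in sandy loam were covered and sprayed on the soil surface with WP/EC suspensions or emulsions, 0.5% additive, 600 L water/ha, then kept in a greenhouse.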

Setaria viridis (SETVI) = assay: Herbicidal post-emergence action, 1280 g/ha (Table B8); conditions: visual assessment after ca. 3 weeks vs untreated controls
Method in brief: as §3

[26] = tested on: Digitaria sanguinalis (DIGSA); assay: Herbicidal pre-emergence action, 1280 g/ha (Table A3); conditions: visual grading after ca. 3 weeks vs untreated controls
Text: as §2, with “plants). Tables A1 to A11 below, show the effects of selected compounds of the general formula (I) according to Table 1 on various harmful plants and an application rate corresponding to 1280 g/ha obtained by the experimental procedure mentioned above.” for “plants).”

Kochia scoparia (KCHSC) [27] = assay: Herbicidal pre-emergence action, 1280 g/ha (Table A4); conditions: visual grading after ca. 3 weeks vs untreated controls
Method in brief: as §1

Structure (SMILES) | herbicidal effect POAAN (Poa annua (POAAN) [1]) | herbicidal effect LOLRI (Lolium rigidum (LOLRI) [4]) | herbicidal effect KCHSC (Kochia scoparia (KCHSC) [5]) | herbicidal effect MATIN [6] | herbicidal effect AMARE [7] | herbicidal effect LOLRI (Lolium rigidum (LOLRI) [9]) | herbicidal effect ABUTH [10] | herbicidal effect AMARE [11] | herbicidal effect STEME (Stellaria media (STEME) [12]) | herbicidal effect STEME (Stellaria media (STEME) [13]) | herbicidal effect ABUTH [14] | herbicidal effect AMARE [15] | herbicidal effect ECHCG [17] | herbicidal effect VERPE (Veronica persica (VERPE) [18]) | herbicidal effect STEME (Stellaria media (STEME) [19]) | herbicidal effect MATIN [20] | herbicidal effect MATIN [21] | herbicidal effect KCHSC (Kochia scoparia (KCHSC) [22]) | herbicidal effect ECHCG [24] | further results
Cc1nn(C)c(=O)c(Oc2ccccc2OC(F)(F)F)c1O [Example I-008] | 100% | – | – | – | – | – | – | – | – | – | – | – | – | – | – | – | – | – | – | herbicidal effect POAAN (Poa annua (POAAN) [2]): 100%; herbicidal effect ALOMY [3]: 100%
CCOC(=O)Oc1c(C)nn(C)c(=O)c1Oc1ccccc1Cl [Example I-010] | 90% | 100% | 100% | 100% | 100% | 100% | 90% | 100% | 90% | 100% | 100% | 90% | 90% | 90% | 100% | 100% | 100% | 100% | – | herbicidal effect VERPE (Veronica persica (VERPE) [8]): 90%; herbicidal effect POAAN (Poa annua (POAAN) [16]): 100%
Cc1nn(C)c(=O)c(Oc2cc(Cl)ccc2Cl)c1O [Example I-016] | – | 100% | 100% | 90% | 100% | 90% | 100% | 100% | 100% | 100% | 100% | 90% | 90% | 90% | 100% | 90% | 100% | 90% | 90% | herbicidal effect LOLRI (Lolium rigidum (LOLRI) [23]): 90%; herbicidal effect LOLRI (Lolium rigidum (LOLRI) [25]): 90%
Cc1nn(C)c(=O)c(Oc2ccc(Cl)cc2Cl)c1OC(=O)C1CCC1 [Example I-064] | – | – | 100% | 90% | 100% | – | – | 100% | – | 90% | – | – | 100% | 90% | 100% | 100% | – | 100% | 100% | herbicidal effect SETVI (Setaria viridis (SETVI)): 90%
Cc1nn(C)c(=O)c(Oc2cc(Cl)c(Cl)c(Cl)c2)c1O [Example I-077] | 100% | – | – | – | – | – | – | – | – | 90% | – | 100% | 90% | – | 100% | – | 100% | – | – | herbicidal effect DIGSA [26]: 100%; herbicidal effect KCHSC (Kochia scoparia (KCHSC) [27]): 90%
